Counter-ions that a name gives are not always drawn.
These compounds were tested against T1, human receptor found in pancreatic islet cells (Homo sapiens, UniProt Q7Z601) (assay: Activation of intracellular IP3 signaling in transfected cells (Activation Assay)). Conditions: calculated from IP3 concentration measurements in cells transfected with the human receptor.
T1 sequence (Q7Z601 1-462): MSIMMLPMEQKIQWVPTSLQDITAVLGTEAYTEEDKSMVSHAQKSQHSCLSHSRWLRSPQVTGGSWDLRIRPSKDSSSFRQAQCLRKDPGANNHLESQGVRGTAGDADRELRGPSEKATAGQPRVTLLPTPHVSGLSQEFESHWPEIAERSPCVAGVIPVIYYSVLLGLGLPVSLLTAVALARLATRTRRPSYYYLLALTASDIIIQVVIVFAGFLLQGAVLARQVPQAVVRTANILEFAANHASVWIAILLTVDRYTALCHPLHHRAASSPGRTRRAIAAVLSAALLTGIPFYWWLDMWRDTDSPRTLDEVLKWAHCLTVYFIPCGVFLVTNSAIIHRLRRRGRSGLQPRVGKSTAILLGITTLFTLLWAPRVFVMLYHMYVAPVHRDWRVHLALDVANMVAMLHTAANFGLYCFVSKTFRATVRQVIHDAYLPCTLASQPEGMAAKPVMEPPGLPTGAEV
Type: cell-based
Method: Table 12 provides exemplary compounds that were prepared and assessed, following protocols known to those of skilled in the art, for activation of intracellular inositol trisphosphate (IP3) signaling pathways that lead to elevation of intracellular calcium concentration. EC50 values provided in Table 12 were calculated from IP3 concentration measurements in cells transfected with a human receptor found in pancreatic islet cells, inter alia.

SMILES | EC50 [nM]
COc1ncc(-c2ccnc(C)c2)cc1NC(=O)[C@@H](N)Cc1ccccc1 [Example 35.6, (2S)-2-Amino-N-(2-methoxy-5-(2-methylpyridin-4-yl)pyridin-3-yl)-3-phenylpropanamide] | 1000 to 10000
O=C(Nc1cncc(-c2ccn[nH]2)c1)[C@H](Cc1ccccc1)NCc1cscn1 [Example 6, (2S)—N-(5-(1H-Pyrazol-5-yl)pyridin-3-yl)-3-phenyl-2-(thiazol-4-ylmethylamino)propanamide] | 100 to 1000
Nc1cccc(-c2cccc(NC(=O)[C@H](Cc3ccccc3)NCc3cscn3)c2)c1 [Example 40, (S)—N-(3′-aminobiphenyl-3-yl)-3-phenyl-2-(thiazol-4-ylmethylamino)propanamide] | 1000 to 10000
COc1ncc(-c2ccn(C)n2)cc1NC(=O)[C@H](Cc1ccccc1)NC1(c2ccccn2)CC1 [Example 19.1] | 100 to 1000
CC(N[C@@H](Cc1ccccc1)C(=O)Nc1cccc(-c2ccncc2)c1)c1cnccn1 (stereo partly drawn) [Example 34.10, (2S)-3-Phenyl-2-(1-(pyrazin-2-yl)ethylamino)-N-(3-(pyridin-4-yl)phenyl)propanamide] | 100 to 1000
COc1ncc(-c2cn[nH]c2)cc1NC(=O)[C@H](Cc1ccccc1)NCc1ccccn1 [Example 15.2, (2S)—N-(2-methoxy-5-(1H-pyrazol-4-yl)pyridin-3-yl)-3-phenyl-2-(pyridin-2-ylmethylamino)propanamide] | 100 to 1000
Cc1cc(-c2ccc(OCCN(C)C)c(NC(=O)[C@H](Cc3ccccc3)NCc3cscn3)c2)ccn1 [Example 75, (2S)—N-(2-(2-(Dimethylamino)ethoxy)-5-(2-methylpyridin-4-yl)phenyl)-3-phenyl-2-(thiazol-4-ylmethylamino)propanamide trifluoroacetate] | 100 to 1000
N[C@@H](Cc1ccccc1)C(=O)Nc1cc(-c2ccncc2)c[nH]c1=O [Example 25.2, (S)-2-amino-N-(2-oxo-5-(pyridin-4-yl)-1,2-dihydropyridin-3-yl)-3-phenylpropanamide diTFA] | 1000 to 10000
O=C(Nc1cccc(-c2cn[nH]c2)c1)[C@H](Cc1ccccc1)NCc1cscn1 [Example 33, (2S)—N-(3-(1H-Pyrazol-4-yl)phenyl)-3-phenyl-2-(thiazol-4-ylmethylamino)propanamide] | 100 to 1000
Cc1cc(-c2cc(NC(=O)[C@H](Cc3ccccc3)NCc3cscn3)cc(C(=O)O)c2)ccn1 [Example 49.2, 3-(2-Methylpyridin-4-yl)-5-((S)-3-phenyl-2-(thiazol-4-ylmethylamino)propanamido)benzoic acid TFA salt] | 100 to 1000
COc1ncc(-c2ccn(C)n2)cc1NC(=O)[C@H](Cc1ccccc1)NC1(c2cscn2)CC1 [Example 19.2] | 100 to 1000
O=C(O)c1cc(NC(=O)[C@H](Cc2ccccc2)NCc2cc[nH]n2)cc(-c2ccncc2)c1 [Example 45.5, (S)-3-(2-((1H-Pyrazol-3-yl)methylamino)-3-phenylpropanamido)-5-(pyridin-4-yl)benzoic acid] | 100 to 1000
O=C(NCCN1CCNC1=O)c1cc(-c2ccncc2)cc2c1CCN2C(=O)[C@H](Cc1ccccc1)NCc1cscn1 [Example 81, (S)—N-(2-(2-Oxoimidazolidin-1-yl)ethyl)-1-(3-phenyl-2-(thiazol-4-ylmethylamino)propanoyl)-6-(pyridin-4-yl)indoline-4-carboxamide] | 100 to 1000
O=C(Nc1cccc(-c2ccccc2)c1)[C@H](Cc1ccccc1)NCc1cscn1 [Example 48] | 100 to 1000
CNC(=O)c1cc(-c2ccncc2)cc2c1CCN2C(=O)[C@H](Cc1ccccc1)NCc1cscn1 [Example 62, (S)—N-Methyl-1-(3-phenyl-2-(thiazol-4-ylmethylamino)propanoyl)-6-(pyridin-4-yl)indoline-4-carboxamide] | 100 to 1000
O=C(Nc1cc(-c2ccncc2)no1)[C@H](Cc1ccc(Cl)cc1)NCc1cscn1 [Example 3.1, (S)-3-(4-Chlorophenyl)-N-(3-(pyridin-4-yl)isoxazol-5-yl)-2-(thiazol-4-ylmethylamino)propanamide] | 100 to 1000

The next lines start with the values.

EC50 [nM] | SMILES
100 to 1000 | COC(=O)COc1cc(NC(=O)[C@H](Cc2ccccc2)NCc2cscn2)cc(-c2ccnc(C)c2)c1 [Example 65, Methyl 2-(3-(2-methylpyridin-4-yl)-5-((S)-3-phenyl-2-(thiazol-4-ylmethylamino)propanamido)phenoxy)acetate]
< 50 | CCCn1nc(-c2ccnc(NC)c2)cc1NC(=O)[C@H](Cc1ccc(F)cc1)NCc1cscn1 [Example 42, (2S)-3-(4-fluorophenyl)-N-(3-(2-(methylamino)pyridin-4-yl)-1-propyl-1H-pyrazol-5-yl)-2-(thiazol-4-ylmethylamino)propanamide]
50 to 100 | COC(=O)c1cc(-c2ccncc2)cc2c1CCN2C(=O)[C@H](Cc1ccccc1)NCc1cscn1 [Example 54.3, (S)-Methyl 1-(3-phenyl-2-(thiazol-4-ylmethylamino)propanoyl)-6-(pyridin-4-yl)indoline-4-carboxylate]
100 to 1000 | O=C(O)Cn1nc(-c2ccncc2)cc1NC(=O)[C@H](Cc1ccccc1)NCc1cscn1 [Example 26, (S)-2-(5-(3-Phenyl-2-(thiazol-4-ylmethylamino)propanamido)-3-(pyridin-4-yl)-1H-pyrazol-1-yl)acetic acid]
100 to 1000 | Cc1cc(-c2cc(NC(=O)[C@H](Cc3ccccc3)NCc3ccccn3)cc(OCCN(C)C)c2)ccn1 [Example 76, (2S)—N-(3-(2-(Dimethylamino)ethoxy)-5-(2-methylpyridin-4-yl)phenyl)-3-phenyl-2-(pyridin-2-ylmethylamino)propanamide]
< 50 | Cc1cc(-c2cnc(OCC(=O)OC(C)(C)C)c(NC(=O)[C@H](Cc3ccccc3)NCc3cscn3)c2)ccn1 [Example 78, tert-Butyl 2-(5-(2-methylpyridin-4-yl)-3-((S)-3-phenyl-2-(thiazol-4-ylmethylamino)propanamido)pyridin-2-yloxy)acetate]
< 50 | COc1ncc(-c2ccncc2)cc1NC(=O)[C@H](Cc1ccccc1)NC1(c2ccccn2)CC1 [Example 11.1, (S)—N-(2-methoxy-5-(pyridin-4-yl)pyridin-3-yl)-3-phenyl-2-(1-(pyridin-2-yl)cyclopropylamino)propanamide]
50 to 100 | Cc1cc(-c2cc(Cl)cc(NC(=O)[C@H](Cc3ccccc3)NCc3ccccn3)c2)ccn1 [Example 46, (2S)—N-(3-chloro-5-(2-methylpyridin-4-yl)phenyl)-3-phenyl-2-(pyridin-2-ylmethylamino)propanamide]
50 to 100 | O=C(Nc1cccc(-c2cc[nH]n2)c1)[C@H](Cc1ccccc1)NCc1cscn1 [Example 12, (2S)—N-(3-(1H-pyrazol-3-yl)phenyl)-3-phenyl-2-(thiazol-4-ylmethylamino)propanamide]
< 50 | O=C(O)CN[C@@H](Cc1ccccc1)C(=O)Nc1cc(-c2ccncc2)nn1CC(F)(F)F [Example 24, (S)-2-(1-Oxo-3-phenyl-1-(3-(pyridin-4-yl)-1-(2,2,2-trifluoroethyl)-1H-pyrazol-5-ylamino)propan-2-ylamino)acetic acid]
< 50 | CNc1cc(-c2cc(NC(=O)[C@H](Cc3ccc(F)cc3)NCc3ccc(F)cn3)n(C)n2)ccn1 [Example 23.6, (2S)-3-(4-Fluorophenyl)-2-((5-fluoropyridin-2-yl)methylamino)-N-(1-methyl-3-(2-(methylamino)pyridin-4-yl)-1H-pyrazol-5-yl)propanamide]
< 50 | CNc1cc(-c2cc(NC(=O)[C@H](Cc3ccc(F)cc3)NCc3cc[nH]n3)n(C)n2)ccn1 [Example 23.2, (2S)-2-((1H-Pyrazol-3-yl)methylamino)-3-(4-fluorophenyl)-N-(1-methyl-3-(2-(methylamino)pyridin-4-yl)-1H-pyrazol-5-yl)propanamide]
50 to 100 | C[C@H](N[C@@H](Cc1ccccc1)C(=O)Nc1nnc(-c2ccncc2)s1)c1cscn1 [Example 1.4]
< 50 | CCn1nc(-c2ccnc(NC)c2)cc1NC(=O)[C@H](Cc1ccc(F)cc1)NCc1ccc(F)cn1 [Example 31.3, (2S)—N-(1-Ethyl-3-(2-(methylamino)pyridin-4-yl)-1H-pyrazol-5-yl)-3-(4-fluorophenyl)-2-((5-fluoropyridin-2-yl)methylamino)propanamide]
50 to 100 | O=C(O)c1cc(NC(=O)[C@H](Cc2ccccc2)NCc2ccccn2)cc(-c2ccncc2)c1 [Example 45.6, (S)-3-(3-Phenyl-2-(pyridin-2-ylmethylamino)propanamido)-5-(pyridin-4-yl)benzoic acid]
50 to 100 | NC(=O)c1cc(NC(=O)[C@H](Cc2ccccc2)NCc2cscn2)cc(-c2ccncc2)c1 [Example 47, (S)-3-(3-phenyl-2-(thiazol-4-ylmethylamino)propanamido)-5-(pyridin-4-yl)benzamide]
50 to 100 | COC(=O)c1cc(-c2ccncc2)cc2c1CCN2C(=O)[C@H](Cc1ccc(F)cc1)NCc1ccccn1 [Example 54.7, (S)-Methyl 1-(3-(4-fluorophenyl)-2-(pyridin-2-ylmethylamino)propanoyl)-6-(pyridin-4-yl)indoline-4-carboxylate]
50 to 100 | O=C(Nc1nnc(-c2ccncc2)s1)[C@H](Cc1ccccc1)NCc1cscn1 [Example 1.5, (S)-3-phenyl-N-(5-(pyridin-4-yl)-1,3,4-thiadiazol-2-yl)-2-(thiazol-4-ylmethylamino)propanamide]

Reference: patent publication US8785468B2, “Phenylalanine amide derivatives useful for treating insulin-related diseases and conditions” (Amgen Inc., priority 2009, dated 2014)
